# Laboratory results as given in patent US9669003B2, “Use of flavone and flavanone derivatives in preparation of sedative and hypnotic drugs” (priority 2012, dated 2017).
# Marks after values point to notes of the source that are not given here.
# Legend:
# Format in all cases: in vivo
# Kunming mice [1] = assay: Influence on autonomic activity of normal mice (ZIL-2 mice autonomic activity meter, counts within 10 min); conditions: intragastric, x ± s, n = 10; for Times of activities in 1 h after drug administration/10 min: 1 h after administration; for Times of activities in 2 h after drug administration/10 min: 2 h after administration; for Times of activities in 24 h after drug administration/10 min: 24 h after administration
# Summary of the method: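 Activity counts during a 10-min window were taken at 1, 2 and 24 h after dosing in groups of 10 mixed-sex Kunming mice. Compounds were given in 0.5% CMC-Na at 25, 50 or 100 mg/kg. Statistics used Levene's homogeneity test, ANOVA and Dunnett's multiple comparisons.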
# Kunming mice [2] = assay: Influence on hypnosis effect with pentobarbital sodium doses below the threshold (25 mg/kg i.p.); conditions: pentobarbital sodium 25 mg/kg i.p. 60 min later, sleep observed in 30 min, n = 10
# Summary of the method: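 Percentage of mice sleeping within 30 min after subthreshold pentobarbital sodium (25 mg/kg i.p.), defined by loss of righting reflex over 1 min, analysed by χ2. Compound in 0.5% CMC-Na given intragastrically at 25/50/100 mg/kg 60 min before; groups of 10 Kunming mice, both sexes.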
# Kunming mice [3] = assay: Influence on hypnosis effect with pentobarbital sodium doses at the threshold (50 mg/kg i.p.); conditions: pentobarbital sodium 50 mg/kg i.p. 60 min later, x ± s, n = 10
# Summary of the method: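 Pentobarbital sodium (0.3%, 50 mg/kg i.p.) injected 60 min after a single intragastric dose (25, 50, 100 mg/kg, 0.5% CMC-Na vehicle) in Kunming mice, 10 per group, sexes balanced. Onset and length of sleep (righting reflex lost over 1 min) analysed by ANOVA; sleeping incidence by χ2 test.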
# [4] = test drug 25 mg/kg intragastric single dose
# [5] = test drug 50 mg/kg intragastric single dose
# [6] = test drug 100 mg/kg intragastric single dose
# [7] = 25 mg/kg intragastric single dose
# [8] = 50 mg/kg intragastric single dose
# [9] = 100 mg/kg intragastric single dose
Structure (SMILES),Times of activities in 1 h after drug administration/10 min (Kunming mice [1]; 25 mg/kg),Times of activities in 2 h after drug administration/10 min (Kunming mice [1]; 25 mg/kg),Times of activities in 24 h after drug administration/10 min (Kunming mice [1]; 25 mg/kg),Times of activities in 1 h after drug administration/10 min (Kunming mice [1]; 50 mg/kg),Times of activities in 2 h after drug administration/10 min (Kunming mice [1]; 50 mg/kg),Times of activities in 24 h after drug administration/10 min (Kunming mice [1]; 50 mg/kg),Times of activities in 1 h after drug administration/10 min (Kunming mice [1]; 100 mg/kg),Times of activities in 2 h after drug administration/10 min (Kunming mice [1]; 100 mg/kg),Times of activities in 24 h after drug administration/10 min (Kunming mice [1]; 100 mg/kg),Number of sleeping animals (Kunming mice [2]; [4]),rate of sleeping (%) (Kunming mice [2]; [4]),Number of sleeping animals (Kunming mice [2]; [5]),rate of sleeping (%) (Kunming mice [2]; [5]),Number of sleeping animals (Kunming mice [2]; [6]),rate of sleeping (%) (Kunming mice [2]; [6]),duration of sleep (Kunming mice [3]; [7]),time to sleep (Kunming mice [3]; [7]),duration of sleep (Kunming mice [3]; [8]),time to sleep (Kunming mice [3]; [8]),duration of sleep (Kunming mice [3]; [9]),further results
O=C1CC(c2ccc(O)c(O)c2)Oc2cc(O)cc(O)c21 (stereo not drawn) [Example 71],301.5 ± 58.2 /10 min,267.8 ± 32.9 /10 min,318.0 ± 66.9 /10 min,278.9 ± 45.0 /10 min,263.0 ± 46.3 /10 min,322.9 ± 81.4 /10 min,249.3 ± 41.3 /10 min,245.8 ± 39.6 /10 min,325.7 ± 60.9 /10 min,3,30%,5,50* %,6,60** %,30.48 ± 22.67 min,5.55 ± 1.83 min,36.63 ± 20.19 min,3.73 ± 1.39 min,56.62 ± 24.57 min,time to sleep (Kunming mice [3]; [9]): 3.82 ± 1.40 min
"COc1ccc(-c2cc(=O)c3c(O)c(OC)c(OC)c(OC)c3o2)cc1OC [Example 11, 5-hydroxyl-6,7,8,3′,4′-penta methoxyl-flavone]",243.1 ± 53.5 /10 min,237.3 ± 45.3 /10 min,291.7 ± 72.5 /10 min,187.2 ± 41.4 /10 min,179.7 ± 46.0 /10 min,287.8 ± 89.1 /10 min,115.9 ± 48.5 /10 min,126.7 ± 48.7 /10 min,315.2 ± 75.4 /10 min,5,50** %,6,60** %,8,80*** %,47.25 ± 14.42 min,3.42 ± 1.37 min,63.75 ± 20.27 min,3.13 ± 1.21 min,78.54 ± 19.27 min,time to sleep (Kunming mice [3]; [9]): 2.13 ± 1.33 min
"COc1ccc(-c2cc(=O)c3c(OC)c(OC)c(OC)cc3o2)cc1OC [Example 10, 5,6,7,3′,4′-penta methoxyl-flavone]",289.3 ± 50.1 /10 min,275.6 ± 44.1 /10 min,315.6 ± 76.3 /10 min,257.2 ± 61.3 /10 min,260.1 ± 58.2 /10 min,325.3 ± 80.2 /10 min,131.2 ± 30.8 /10 min,231.6 ± 44.2 /10 min,304.1 ± 82.5 /10 min,2,20%,5,50** %,6,60** %,31.72 ± 21.73 min,5.42 ± 1.58 min,39.41 ± 21.74 min,3.90 ± 1.34 min,59.21 ± 22.41 min,time to sleep (Kunming mice [3]; [9]): 3.81 ± 1.63 min
CC=Cc1cc(-c2cc(=O)c3c(CCCCC)cc(C(=O)O)cc3o2)cc(C(=O)O)c1C#N [Example 26],310.7 ± 59.5 /10 min,279.0 ± 32.2 /10 min,313.5 ± 68.8 /10 min,284.7 ± 46.1 /10 min,267.1 ± 43.5 /10 min,314.1 ± 82.3 /10 min,263.6 ± 42.4 /10 min,245.6 ± 40.8 /10 min,322.6 ± 61.2 /10 min,4,40* %,5,50** %,7,70** %,23.01 ± 25.99 min,5.38 ± 2.22 min,28.69 ± 26.56 min,5.12 ± 2.32 min,65.28 ± 46.29 min,time to sleep (Kunming mice [3]; [9]): 3.24 ± 1.16 min
